Assay results taken from the NIST ThermoML archive (doi:10.1016/j.jct.2011.09.008).

Test: xn = mol fraction of the nth substance listed
Conditions: 101 kPa, Liquid, Sing-around technique in a fixed-path interferometer

CCCOCC(C)O (stereo not given) [1-propoxy-2-propanol] + O
speed of sound [m/s]
Conditions	283.15 K	288.15 K	293.15 K	298.15 K	303.15 K
x1 = 0.00326	1470.7	1487.1	1501.5	1514.2	1527.5
x1 = 0.00845	1503.1	1516.8	1528.7	1538.8	1548.3
x1 = 0.01369	1533.3	1543.7	1552.5	1560.1	1565.5
x1 = 0.01942	1563.4	1570.1	1575.7	1579.2	1581.5
x1 = 0.02453	1582.6	1585.6	1586.9	1586.7	1585.7
x1 = 0.02855	1594.9	1594	1591.7	1587.7	1582.4
x1 = 0.03532	1598	1590.9	1583.2	1575.1	1566.6
x1 = 0.04675	1577.1	1566.9	1557	1547.1	1536.8
x1 = 0.06359	1545.3	1535.2	1524.6	1513.5	1501.6
x1 = 0.08224	1520.5	1509.6	1498.1	1486	1472.6
x1 = 0.09758	1504.9	1493.2	1481	1467.8	1454
x1 = 0.1185	1487.8	1475.4	1462.3	1448.6	1434
x1 = 0.145	1470.9	1457.6	1444	1429.6	1414.6
x1 = 0.1945	1447.2	1433.1	1418.6	1403.7	1388.4
x1 = 0.2213	1437.3	1422.4	1407.9	1392.7	1377.5
x1 = 0.2686	1422.1	1406.9	1391.7	1376	1360.6
x1 = 0.3432	1402.5	1386.5	1370.8	1354.5	1338.5
x1 = 0.4424	1381.2	1364.5	1347.8	1330.9	1314.2
x1 = 0.5415	1363	1345.7	1328.4	1311	1293.7
x1 = 0.6444	1346.5	1328.6	1310.8	1293	1275.3
x1 = 0.7056	1337.3	1319.3	1301.3	1283.3	1265.3
x1 = 0.7569	1330.3	1312	1293.9	1275.7	1257.7
x1 = 0.7951	1325.2	1306.9	1288.7	1270.4	1252.4
x1 = 0.8374	1320.2	1301.4	1283.2	1264.8	1246.5
x1 = 0.88	1314.6	1296.2	1277.8	1259.4	1240.9
x1 = 0.9193	1310.3	1291.7	1273.4	1254.8	1236.5
x1 = 0.9597	1306	1287.3	1268.9	1250.2	1231.7
x1 = 1	1301.9	1283.2	1264.5	1245.8	1227.3
